According to patent US20070123546A1, “2-amino-7,8-dihydro-6H-pyrido[4,3-d]pyrimidin-5-ones” (Chiron Corporation, priority 2005, published 2007):

Target: His-tagged N-terminal ATP binding domain (amino acid residues 9-236) of HSP90α (Homo sapiens, UniProt P07900)
Test: HSP90 inhibitor binding potency: TRF competition binding assay
Conditions: Table 3; competition with biotinylated radicicol
Outline: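 His-tagged HSP90α N-domain (residues 9-236) incubated 2 h at room temperature with biotinylated radicicol and increasing compound in 50 mM HEPES, 6 mM MgCl2, 20 mM KCl, 0.1% BSA. Bound tracer captured on streptavidin plates, detected with europium anti-His antibody by time-resolved fluorescence; IC50 derived.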

IC50 [µM] | Structure (SMILES)
< 10 | Cc1nc(N)nc2c1C(=O)N[C@@H](c1ccc(F)cc1)C2 [Compound 102, (R)-2-Amino-7-(4-fluoro-phenyl)-4-methyl-7,8-dihydro-6H-pyrido[4,3-d]pyrimidin-5-one]
< 10 | Cc1nc(N)nc2c1C(=O)N[C@@H](c1ccccc1)C2 [Compound 103, (R)-2-Amino-4-methyl-7-phenyl-7,8-dihydro-6H-pyrido[4,3-d]pyrimidin-5-one]
< 10 | COc1nc(-c2ccccc2[C@H]2Cc3nc(N)nc(C)c3C(=O)N2)cnc1N [Compound 104, (R)-2-Amino-7-[2-(5-amino-6-methoxy-pyrazin-2-yl)-phenyl]-4-methyl-7,8-dihydro-6H-pyrido[4,3-d]pyrimidin-5-one]
< 10 | C=CCN1C(=O)c2c(C)nc(N)nc2C[C@@H]1c1ccc(F)cc1-c1cnc(N)c(OC)n1 [Compound 105, (R)-6-Allyl-2-amino-7-[2-(5-amino-6-methoxy-pyrazin-2-yl)-4-fluoro-phenyl]-4-methyl-7,8-dihydro-6H-pyndo[4,3-d]pyrimidin-5-one]
< 10 | CCN1C(=O)c2c(C)nc(N)nc2C[C@@H]1c1ccc(F)cc1-c1cccc(OC)n1 [Compound 106, (R)-2-Amino-6-ethyl-7-[4-fluoro-2-(6-methoxy-pyridin-2-yl)-phenyl]-4-methyl-7,8-dihydro-6H-pyrido[4,3-d]pyrimidin-5-one]
< 10 | CCN1C(=O)c2c(C)nc(N)nc2C[C@@H]1c1ccc(F)cc1-c1cccnc1OC [Compound 107, (R)-2-Amino-6-ethyl-7-[4-fluoro-2-(2-methoxy-pyridin-3-yl)-phenyl]-4-methyl-7,8-dihydro-6H-pyrido[4,3-d]pyrimidin-5-one]
< 10 | CCN1C(=O)c2c(C)nc(N)nc2C[C@@H]1c1ccc(F)cc1-c1cncc(OC)n1 [Compound 108, (R)-2-Amino-6-ethyl-7-[4-fluoro-2-(6-methoxy-pyrazin-2-yl)-phenyl]-4-methyl-7,8-dihydrp-6H-pyrido[4,3-d]pyrimidin-5-one]
< 10 | CCN1C(=O)c2c(C)nc(N)nc2C[C@@H]1c1ccc(F)cc1-c1cccnc1 [Compound 110, (R)-2-Amino-6-ethyl-7-(4-fluoro-2-pyridin-3-yl-phenyl)-4-methyl-7,8-dihydro-6H-pyrido[4,3-d]pyrimidin-5-one]
> 10 | CCN1C(=O)c2c(C)nc(N)nc2C[C@@H]1c1ccc(F)cc1-c1cnc(OC)nc1OC [Compound 111, (R)-2-Amino-7-[2-(2,4-dimethoxy-pyrimidin-5-yl)-4-fluoro-phenyl]-6-ethyl-4-methyl-7,8-dihydro-6H-pyrido[4,3-d]pyrimidin-5-one]
> 10 | Cc1nc(N)nc2c1C(=O)N(Cc1ccccc1)[C@@H](c1ccc(F)cc1-c1ncc(Cl)c(O)n1)C2 [Compound 112, (R)-2-Amino-6-benzyl-7-[2-(5-chloro-4-hydroxy-pyrimidin-2-yl)-4-fluoro-phenyl]-4-methyl-7,8-dihydro-6H-pyrido[4,3-d]pyrimidin-5-one]
< 10 | COc1cncc(-c2cc(F)ccc2[C@H]2Cc3nc(N)nc(C)c3C(=O)N2CCO)n1 [Compound 113, (R)-2-Amino-7-[4-fluoro-2-(6-methoxy-pyrazin-2-yl)-phenyl]-6-(2-hydroxy-ethyl)-4-methyl-7,8-dihydro-6H-pyrido[4,3-d]pyrimidin-5-one]
> 10 | COc1ccc(CN2C(=O)c3c(C)nc(N)nc3C[C@@H]2c2ccc(F)cc2Br)c(OC)c1 [Compound 114, (R)-2-Amino-7-(2-bromo-4-fluoro-phenyl)-6-(2,4-dimethoxy-benzyl)-4-methyl-7,8-dihydro-6H-pyrido[4,3-d]pyrimidin-5-one]
< 10 | COc1cncc(-c2cc(F)ccc2[C@H]2Cc3nc(N)nc(C)c3C(=O)N2Cc2cccc(Cl)c2)n1 [Compound 115, (R)-2-Amino-6-(3-chloro-benzyl)-7-[4-fluoro-2-(6-methoxy-pyrazin-2-yl)-phenyl]-4-methyl-7,8-dihydro-6H-pyrido[4,3-d]pyrimidin-5-one]
< 10 | COc1cccc(-c2cc(F)ccc2[C@H]2Cc3nc(N)nc(C)c3C(=O)N2Cc2cccc(Cl)c2)n1 [Compound 116, (R)-2-Amino-6-(3-chloro-benzyl)-7-[4-fluoro-2-(6-methoxy-pyridin-2-yl)-phenyl]-5-methyl-7,8-dihydro-6H-pyrido[4,3-d]pyrimidin-5-one]
< 10 | COc1ncc(-c2cc(F)ccc2[C@H]2Cc3nc(N)nc(C)c3C(=O)N2Cc2cccc(Cl)c2)nc1OC [Compound 117, (R)-2-Amino-6-(3-chloro-benzyl)-7-[2-(5,6-dimethoxy-pyrazin-2-yl)-4-fluoro-phenyl]-4-methyl-7,8-dihydro-6H-pyrido[4,3-d]pyrimidin-5-one]
< 10 | COc1ccc(CN2C(=O)c3c(C)nc(N)nc3C[C@@H]2c2ccc(F)cc2-c2cncc(OC)n2)c(OC)c1 [Compound 118, (R)-2-Amino-6-(2,4-dimethoxy-benzyl)-7-[4-fluoro-2-(6-methoxy-pyrazin-2-yl)-phenyl]-4-methyl-7,8-dihydro-6H-pyrido[4,3-d]pyrimidin-5-one]
< 10 | COc1ccc(CN2C(=O)c3c(C)nc(N)nc3C[C@@H]2c2ccc(F)cc2-c2cccc(OC)n2)c(OC)c1 [Compound 119, (R)-2-Amino-6-(2,4-dimethoxy-benzyl)-7-[4-fluoro-2-(6-methoxy-pyridin-2-yl)-phenyl]-4-methyl-7,8-dihydro-6H-pyrido[4,3-d]pyrimidin-5-one]
< 10 | COc1cccc(-c2cc(F)ccc2[C@H]2Cc3nc(N)nc(C)c3C(=O)N2Cc2ccncc2)n1 [Compound 120, (R)-2-Amino-7-[4-fluoro-2-(6-methoxy-pyridin-2-yl)-phenyl]-4-methyl-6-pyridin-4-ylmethyl-7,8-dihydro-6H-pyrido[4,3-d]pyrimidin-5-one]
< 10 | COc1cncc(-c2cc(F)ccc2[C@H]2Cc3nc(N)nc(C)c3C(=O)N2Cc2ccncc2)n1 [Compound 121, (R)-2-Amino-7-[4-fluoro-2-(6-methoxy-pyrazin-2-yl)-phenyl]-4-methyl-6-pyridin-4-ylmethyl-7,8-dihydro-6H-pyrido[4,3-d]pyrimidin-5-one]
< 10 | COc1nc(-c2cc(F)ccc2[C@H]2Cc3nc(N)nc(C)c3C(=O)N2Cc2ccncc2)cnc1N [Compound 122, (R)-2-Amino-7-[2-(5-amino-6-methoxy-pyrazin-2-yl)-4-fluoro-phenyl]-4-methyl-6-pyridin-4-ylmethyl-7,8-dihydro-6H-pyrido[4,3-d]pyrimidin-5-one]
< 10 | COc1cccc(-c2cc(F)ccc2[C@H]2Cc3nc(N)nc(C)c3C(=O)N2Cc2ccccc2F)n1 [Compound 123, (R)-2-Amino-6-(2-fluoro-benzyl)-7-[4-fluoro-2-(6-methoxy-pyridin-2-yl)-phenyl]-4-methyl-7,8-dihydro-6H-pyrido[4,3-d]pyrimidin-5-one]
< 10 | COc1nc(-c2cc(F)ccc2[C@H]2Cc3nc(N)nc(C)c3C(=O)N2Cc2ccccc2F)cnc1N [Compound 124, (R)-2-Amino-7-[2-(5-amino-6-methoxy-pyrazin-2-yl)-4-fluoro-phenyl]-6-(2-fluoro-benzyl)-4-methyl-7,8-dihydro-6H-pyrido[4,3-d]pyrimidin-5-one]
< 10 | COc1cccc(-c2cc(F)ccc2[C@H]2Cc3nc(N)nc(C)c3C(=O)N2Cc2ccccc2Cl)n1 [Compound 125, (R)-2-Amino-6-(2-chloro-benzyl)-7-[4-fluoro-2-(6-methoxy-pyridin-2-yl)-phenyl]-4-methyl-7,8-dihydro-6H-pyrido[4,3-d]pyrimidin-5-one]
< 10 | COc1nc(-c2cc(F)ccc2[C@H]2Cc3nc(N)nc(C)c3C(=O)N2Cc2ccccc2Cl)cnc1N [Compound 126, (R)-2-Amino-7-[2-(5-amino-6-methoxy-pyrazin-2-yl)-4-fluoro-phenyl]-6-(2-chloro-benzyl)-4-methyl-7,8-dihydro-6H-pyrido[4,3-d]pyrimidin-5-one]
< 10 | COc1cncc(-c2cc(F)ccc2[C@H]2Cc3nc(N)nc(C)c3C(=O)N2Cc2cccc(C(F)(F)F)c2)n1 [Compound 127, (R)-2-Amino-7-[4-fluoro-2-(6-methoxy-pyrazin-2-yl)-phenyl]-4-methyl-6-(3-trifluoromethyl-benzyl)-7,8-dihydro-6H-pyrido[4,3-d]pyrimidin-5-one]
< 10 | COc1cccc(-c2cc(F)ccc2[C@H]2Cc3nc(N)nc(C)c3C(=O)N2Cc2cccc(C(F)(F)F)c2)n1 [Compound 128, (R)-2-Amino-7-[4-fluoro-2-(6-methoxy-pyridin-2-yl)-pheny 1]-4-methyl-6-(3-trifluoromethyl-benzyl)-7,8-dihydro-6H-pyrido[4,3-d]pyrimidin-5-one]
< 10 | COc1cncc(-c2cc(F)ccc2[C@H]2Cc3nc(N)nc(C)c3C(=O)N2Cc2ccccc2F)n1 [Compound 129, (R)-2-Amino-6-(2-fluoro-benzyl)-7-[4-fluoro-2-(6-methoxy-pyrazin-2-yl)-phenyl]-4-methyl-7,8-dihydro-6H-pyrido[4,3-d]pyrimidin-5-one]
< 10 | COc1cncc(-c2cc(F)ccc2[C@H]2Cc3nc(N)nc(C)c3C(=O)N2Cc2ccccc2Cl)n1 [Compound 130, (R)-2-Amino-6-(2-chloro-benzyl)-7-[4-fluoro-2-(6-methoxy-pyrazin-2-yl)-phenyl]-4-methyl-7,8-dihydro-6H-pyrido[4,3-d]pyrimidin-5-one]
< 10 | COc1cncc(-c2cc(F)ccc2[C@H]2Cc3nc(N)nc(C)c3C(=O)N2CC2CCOCC2)n1 [Compound 131, (R)-2-Amino-7-[4-fluoro-2-(6-methoxy-pyrazin-2-yl)-phenyl]-4-methyl-6-(tetrahydro-pyran-4-ylmethyl)-7,8-dihydro-6H-pyrido[4,3-d]pyrimidin-5-one]
< 10 | COc1cccc(-c2cc(F)ccc2[C@H]2Cc3nc(N)nc(C)c3C(=O)N2CC2CCOCC2)n1 [Compound 132, (R)-2-Amino-7-[4-fluoro-2-(6-methoxy-pyridin-2-yl)-phenyl]-4-methyl-6-(tetrahydro-pyran-4-ylmethyl)-7,8-dihydro-6H-pyrido[4,3-d]pyrimidin-5-one]
